Experiments:
Experiment in all cases: relative viability (nuclei count vs DMSO), 5 days (fraction); higher = more cells survive
Sunitinib + OSI-027 = compound: CCN(CC)CCNC(=O)c1c(C)[nH]c(/C=C2\C(=O)Nc3ccc(F)cc32)c1C [Sunitinib] + COc1cccc2cc(-c3nc([C@H]4CC[C@H](C(=O)O)CC4)n4ncnc(N)c34)[nH]c12 [OSI-027] (partner 0.5 µM)
Method in brief: (§1)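 Relative viability equals treated-well nuclei counts divided by vehicle-well nuclei counts. Counts came from 4× images of lung cancer cell lines grown in 1536-well plates for 5 days after pin-tool dosing on the day after seeding. Dosing used one drug alone or a fixed anchor-drug dose plus five library-drug doses (not always all listed) in √10 steps, and values are medians of duplicate plates.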

Sunitinib + Linsitinib = compound: CCN(CC)CCNC(=O)c1c(C)[nH]c(/C=C2\C(=O)Nc3ccc(F)cc32)c1C [Sunitinib] + C[C@]1(O)C[C@@H](c2nc(-c3ccc4ccc(-c5ccccc5)nc4c3)c3c(N)nccn32)C1 [Linsitinib] (partner 1 µM)
Method in brief: as §1

Sunitinib + Luminespib = compound: CCN(CC)CCNC(=O)c1c(C)[nH]c(/C=C2\C(=O)Nc3ccc(F)cc32)c1C [Sunitinib] + CCNC(=O)c1noc(-c2cc(C(C)C)c(O)cc2O)c1-c1ccc(CN2CCOCC2)cc1 [Luminespib] (partner 0.01 µM)
Method in brief: as §1

Sunitinib + Lapatinib = compound: CCN(CC)CCNC(=O)c1c(C)[nH]c(/C=C2\C(=O)Nc3ccc(F)cc32)c1C [Sunitinib] + CS(=O)(=O)CCNCc1ccc(-c2ccc3ncnc(Nc4ccc(OCc5cccc(F)c5)c(Cl)c4)c3c2)o1 [Lapatinib] (partner 2 µM)
Method in brief: as §1

Cell Line	relative viability (Sunitinib + OSI-027; first compound 0.02 µM)	relative viability (Sunitinib + OSI-027; first compound 0.06325 µM)	relative viability (Sunitinib + OSI-027; first compound 0.2 µM)	relative viability (Sunitinib + OSI-027; first compound 0.6325 µM)	relative viability (Sunitinib + OSI-027; first compound 2 µM)	relative viability (Sunitinib + Linsitinib; first compound 0.06325 µM)	relative viability (Sunitinib + Linsitinib; first compound 0.2 µM)	relative viability (Sunitinib + Linsitinib; first compound 0.6325 µM)	relative viability (Sunitinib + Linsitinib; first compound 2 µM)	relative viability (Sunitinib + Luminespib; first compound 0.02 µM)	relative viability (Sunitinib + Luminespib; first compound 0.06325 µM)	relative viability (Sunitinib + Luminespib; first compound 0.2 µM)	relative viability (Sunitinib + Luminespib; first compound 0.6325 µM)	relative viability (Sunitinib + Luminespib; first compound 2 µM)	relative viability (Sunitinib + Lapatinib; first compound 0.02 µM)	relative viability (Sunitinib + Lapatinib; first compound 0.06325 µM)	relative viability (Sunitinib + Lapatinib; first compound 0.2 µM)	relative viability (Sunitinib + Lapatinib; first compound 0.6325 µM)	relative viability (Sunitinib + Linsitinib; first compound 0.02 µM)	relative viability (Sunitinib + Lapatinib; first compound 2 µM)
NCI-H2405	0.647	0.643	0.631	0.65	0.673	1.02	0.976	1.08	0.917	0.672	0.616	0.854	0.947	0.722	1.03	1.21	1.18	1.18		
SK-LU-1	0.323	0.387	0.4	0.348	0.199	1.09	1.28			0.21	0.187	0.21	0.216	0.2	0.942	0.853	1.06	1.02	1.29	0.809
PC-3 [JPC-3]	0.807	0.773	0.743	0.82	0.754	0.975	0.951	0.987	0.881	0.681	0.672	0.755	0.762	0.692	0.456	0.459	0.494	0.464	0.978	0.5
NCI-H727	0.717	0.574	0.757	0.687	0.631	0.363	0.239	0.311	0.292	0.429	0.498	0.456	0.457	0.313	0.88	0.887	1.36	0.937	0.146	0.781
EKVX	0.671	0.728	0.771	0.741	0.666	1.04	1.18	1.12	1.06	0.811	0.918	0.747	0.942	0.936	0.213	0.227	0.193	0.233	1.07	0.241
RERF-LC-KJ	0.55	0.574	0.689	0.626	0.525	0.869	0.968	1.07	0.855	1.02	1.25	1.35	1.4	1.14	0.887	0.844			0.868	0.828
NCI-H1355	0.431	0.455	0.441	0.437	0.365	0.859	0.874	0.829	0.813	0.723	0.735	0.718	0.712	0.719	1.01	1.04	1.12	1.07	0.759	1.06
ChaGo-K-1	0.494	0.685	0.577	0.663	0.579					0.587	0.662	0.784	0.709	0.724						
LK-2	0.175	0.257	0.189	0.2	0.194	0.516	0.658	0.712	0.637	0.193	0.213	0.208	0.231	0.2	0.773		1.15	0.939	0.504	0.866
NCI-H2085	0.761	0.768	0.73	0.96	1.06	0.923	0.939	0.945	1.02	0.494	0.399	0.489	0.46	0.377	0.759	0.814	0.791	0.856		0.839
NCI-H1648		0.24	0.266	0.231	0.294															
LCLC-103H	0.373	0.477	0.467	0.397	0.456	1.02	1.11	1.1	1.08	0.883	1.04	0.966	0.977	1.06					0.987	
Calu-6						1.08		1.08	0.981						1.02	1.16	1.28	1.18	0.874	1.19
SW 900	0.597	0.715	0.665	0.584	0.614					0.183	0.22	0.172	0.192	0.194						
NCI-H1299							1.05	0.998	1.05						0.956	0.988	0.992	0.932	0.922	0.953
NCI-H1650	0.577	0.65	0.527	0.768	0.513					0.219	0.201	0.206	0.198	0.217	0.559		0.769	0.739		0.737
HCC-78	0.352	0.397	0.377	0.379	0.411		0.501		0.565						0.747		0.767		0.472	0.893
IA-LM						0.719		0.561	0.94						0.674	0.917	0.804	0.81	0.558	0.947
NCI-H522	0.648	0.831	0.769	0.744	0.69					0.951	1.11	1.21	1.14	1.28						
HCC-366	0.895	0.862	1.1	0.904	0.636	0.619	0.606	0.628	0.571						1.04	1.17	1.33		0.512	1.07
NCI-H441	0.651	0.751	0.898	0.684	0.47	0.491	0.542	0.555	0.612	0.32	0.275	0.332	0.396	0.339					0.406	
NCI-H1703						0.18	0.257	0.174	0.17						0.633	0.264	0.318	0.245	0.51	0.284

Reference: the supplement of paper PMC10307832
